# Measurements from the supplement of paper PMC10307832.
# Key:
# Experiment in all cases: relative viability (nuclei count vs DMSO), 5 days (fraction); higher = more cells survive
# [1] = compound: CC1=C(C(=NN1)C)CC2=C(C3=C(S2)N(C(=O)N(C3=O)C)CC(C)C)C(=O)N4C[C@@H](CO4)O
# Procedure, shortened: (§1)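 Viability was read as treated-well nuclei divided by vehicle-well nuclei, using the median across plates. Lung cancer cell lines in 1536-well plates were kept overnight at 37 °C, pinned with five √10-spaced library-drug doses, and after 5 days were Hoechst-stained, imaged at 4× and counted in MetaXpress. Plates passed only with control CV below 25% and at least one doubling.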
# IDH-C35 = compound: Cc1ccccc1C(C(=O)NC1CCCCC1)N(C(=O)Cn1ccnc1C)c1cccc(F)c1 [IDH-C35]
# Procedure, shortened: as §1
# [2] = compound: CC1=C(C(=NN1)C)CC2=C(C3=C(S2)N(C(=O)N(C3=O)C)CC(C)C)C(=O)N4C[C@@H](CO4)O + CC(=O)Nc1cccc(-n2c(=O)n(C3CC3)c(=O)c3c(Nc4ccc(I)cc4F)n(C)c(=O)c(C)c32)c1 [Trametinib] (partner 0.02 µM)
# Procedure, shortened: (§2)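 Lung cancer cell lines in 1536-well plates got either a single drug or a fixed anchor-drug dose together with five library-drug doses (not always all listed) in √10 steps, by pin tool, on the day after seeding. Nuclei were counted after 5 days, and relative viability is the treated-to-vehicle ratio of nuclei counts. Values are medians of duplicate plates.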
# IDH-C35 + Navitoclax = compound: Cc1ccccc1C(C(=O)NC1CCCCC1)N(C(=O)Cn1ccnc1C)c1cccc(F)c1 [IDH-C35] + CC1(C)CCC(c2ccc(Cl)cc2)=C(CN2CCN(c3ccc(C(=O)NS(=O)(=O)c4ccc(N[C@H](CCN5CCOCC5)CSc5ccccc5)c(S(=O)(=O)C(F)(F)F)c4)cc3)CC2)C1 [Navitoclax] (partner 0.5 µM)
# Procedure, shortened: as §2
Cell Line,relative viability ([1]; 0.0025 µM),relative viability ([1]; 0.007906 µM),relative viability ([1]; 0.025 µM),relative viability ([1]; 0.07906 µM),relative viability ([1]; 0.25 µM),relative viability (IDH-C35; 0.08 µM),relative viability (IDH-C35; 0.253 µM),relative viability (IDH-C35; 0.8 µM),relative viability (IDH-C35; 2.53 µM),relative viability (IDH-C35; 8 µM),relative viability ([2]; first compound 0.0025 µM),relative viability ([2]; first compound 0.007906 µM),relative viability ([2]; first compound 0.025 µM),relative viability ([2]; first compound 0.07906 µM),relative viability ([2]; first compound 0.25 µM),relative viability (IDH-C35 + Navitoclax; first compound 0.08 µM),relative viability (IDH-C35 + Navitoclax; first compound 0.253 µM),relative viability (IDH-C35 + Navitoclax; first compound 0.8 µM),relative viability (IDH-C35 + Navitoclax; first compound 2.53 µM),relative viability (IDH-C35 + Navitoclax; first compound 8 µM)
LK-2,1,1.03,0.818,0.804,0.898,0.881,0.995,0.996,0.998,0.943,0.703,0.952,0.651,0.613,0.61,0.88,0.834,0.866,0.911,0.903
NCI-H2126,1.05,1.01,1,0.935,1.06,1.01,1.02,0.965,0.937,0.92,0.527,0.57,0.548,0.551,0.577,0.906,0.864,0.849,0.866,0.857
NCI-H3122,1.01,0.971,0.99,1.01,1.03,0.999,1.02,1.01,0.985,0.973,0.226,0.305,0.254,0.187,0.229,1.03,0.997,0.96,1.01,1.08
NCI-H1975,1.07,0.997,0.873,0.988,1.02,0.968,1.01,0.986,1.05,0.966,0.38,0.358,0.403,0.491,0.33,1.12,1.34,1.03,1.09,1.01
NCI-H1944,1.04,1.1,0.982,0.933,0.944,1.01,1.07,0.927,0.941,0.976,0.422,0.438,0.478,0.396,0.385,1.02,1.04,0.942,1.05,1.04
LU99A,0.968,0.995,0.887,1.03,0.893,1.04,0.992,0.895,0.919,0.964,0.522,0.606,0.452,0.57,0.532,0.702,0.814,0.871,0.925,0.781
SW 1573,1.02,1.09,0.975,0.957,1.05,1.1,1.12,0.951,0.875,0.898,0.496,0.574,0.622,0.59,0.654,0.964,1.07,1.07,0.841,1.02
NCI-H2347,1.11,1.2,0.949,0.983,1.04,1.04,1.06,0.937,1.02,0.997,0.269,0.313,0.301,0.274,0.265,0.766,0.765,0.801,0.851,0.742
NCI-H2009,1.07,1.08,0.963,1.09,1.09,1.03,1.03,1.01,0.988,0.946,0.318,0.286,0.289,0.287,0.237,1.22,1.16,1.12,1.17,1.16
HCC-15,1.04,1.03,1.01,1.04,1.12,1,0.97,0.956,–,0.925,0.411,0.365,0.378,0.407,0.415,0.69,0.692,0.708,0.632,0.606
HCC-44,1.01,1.01,0.992,0.931,1.05,0.949,0.947,0.971,0.998,0.942,1.11,1.08,1.1,1.05,1.05,0.927,1.02,1.02,0.953,0.952
COR-L23,0.965,1.08,0.919,0.933,0.976,1.1,1.08,1.01,0.995,0.978,0.662,0.74,0.452,0.547,0.712,1.17,0.907,0.977,0.979,1.05
HCC-78,1.08,1.14,0.845,0.91,0.832,0.925,0.979,0.896,0.998,0.928,0.796,0.77,0.775,0.663,0.811,0.86,0.762,0.763,0.62,0.656
NCI-H727,1.07,1,1,0.875,0.964,0.81,0.98,1.01,0.979,1.01,0.348,0.374,0.442,0.379,0.34,0.377,0.429,0.371,0.399,0.35
NCI-H2087,1.05,1.13,0.951,0.92,1.26,1.2,1.07,0.945,0.898,0.931,0.248,0.202,0.213,0.201,0.208,1.13,1.02,0.896,0.867,0.999
BEN,0.885,0.949,0.735,0.788,0.865,0.964,0.97,0.904,0.972,1.01,0.955,0.927,0.922,0.862,0.826,0.0634,0.062,0.0706,0.0643,0.0666

Cell Line,relative viability ([1]; 0.0025 µM),relative viability ([1]; 0.007906 µM),relative viability ([1]; 0.025 µM),relative viability ([1]; 0.07906 µM),relative viability ([1]; 0.25 µM),relative viability (IDH-C35; 0.08 µM),relative viability (IDH-C35; 0.253 µM),relative viability (IDH-C35; 0.8 µM),relative viability (IDH-C35; 2.53 µM),relative viability (IDH-C35; 8 µM),relative viability ([2]; first compound 0.0025 µM),relative viability ([2]; first compound 0.007906 µM),relative viability ([2]; first compound 0.025 µM),relative viability ([2]; first compound 0.07906 µM),relative viability ([2]; first compound 0.25 µM),relative viability (IDH-C35 + Navitoclax; first compound 0.08 µM),relative viability (IDH-C35 + Navitoclax; first compound 0.253 µM),relative viability (IDH-C35 + Navitoclax; first compound 0.8 µM),relative viability (IDH-C35 + Navitoclax; first compound 2.53 µM),relative viability (IDH-C35 + Navitoclax; first compound 8 µM)
EKVX,1.08,1.03,0.952,0.883,0.989,0.991,0.991,0.922,0.861,0.997,0.397,0.339,0.353,0.246,0.372,1.17,0.911,0.899,1.01,0.897
LXF-289,1.02,1.02,0.975,0.971,1.02,1.02,1,1.02,0.99,0.997,0.705,0.702,0.669,0.641,0.689,0.968,0.931,0.961,0.896,0.987
NCI-H1650,0.986,1.07,1.11,1.14,1.21,1.01,0.986,0.928,0.923,0.839,0.626,0.687,0.759,0.62,0.788,1.23,1.21,1.19,1.24,1.17
NCI-H2085,0.992,0.954,0.939,0.981,0.793,1.01,1,0.957,1.09,0.969,0.844,0.586,0.575,0.608,0.549,1.21,1.25,1.15,1.14,1.21
NCI-H1793,0.94,0.995,1,0.886,0.686,0.961,0.874,0.844,0.859,0.994,0.378,0.435,0.392,0.455,0.36,0.549,0.446,0.444,0.456,0.608
LC-2-ad,0.982,0.93,0.956,1.04,1.04,0.993,1,0.966,0.701,0.898,0.928,0.874,0.922,0.896,0.927,0.544,0.589,0.467,0.427,0.331
COR-L 105,0.952,0.976,0.897,0.897,1.02,0.897,0.921,0.926,0.863,0.91,0.48,0.443,0.511,0.466,0.406,1.01,1.04,0.64,0.899,0.569
NCI-H1355,1.08,1.03,0.994,0.993,0.952,0.978,0.971,0.961,0.915,0.944,0.461,0.423,0.472,0.402,0.442,0.952,0.928,0.934,0.938,0.996
H3255,1.01,0.925,0.866,0.94,1.1,0.955,1,0.988,0.978,1.11,0.602,0.693,0.671,0.617,0.681,0.577,0.543,0.495,0.606,0.636
NCI-H1993,1.05,0.91,0.963,0.843,0.884,0.843,0.955,0.891,1.02,0.955,0.627,0.0091,0.553,0.641,0.522,0.943,0.878,0.919,1.1,1.13
NCI-H1734,1.01,1.16,1.03,0.889,0.962,1.06,1.04,1,0.879,0.995,0.666,0.757,0.675,0.62,0.665,0.9,0.849,0.827,0.796,0.791
HOP-62,0.962,0.976,0.953,0.977,1.17,1.03,1.03,0.957,0.81,0.964,0.365,0.402,0.408,0.435,0.4,1.07,0.939,0.84,0.974,0.891
LOU-NH91,1,0.989,1.01,1.12,1.03,0.945,0.986,0.987,0.917,0.96,0.802,0.756,0.812,0.826,0.792,0.69,0.78,0.722,0.635,0.735
ChaGo-K-1,0.989,0.98,0.901,0.969,1.06,0.994,0.941,0.993,0.966,1.02,0.94,0.871,0.889,0.918,0.916,0.62,0.966,1.09,0.73,1.17
NCI-H2228,0.925,1.24,1.13,0.907,1.08,0.87,0.935,0.968,1.01,0.935,0.788,0.584,0.578,0.662,0.577,0.915,1.18,1.29,0.875,0.706
